Laboratory results reported in publication PMC12736958 (Pharmaceutics, 2025).
Where “and” joins values, the source holds several entries; their conditions need not be identical. Equal entries are not always repeated.

Legend:
[1] = cited from earlier work
[2] = equilibrium solubility of crystalline Cur in excipient solutions; format: physicochemical; settings: pure water, pH 7.0, 37 °C, filtered 0.22 μm, read-out: equilibrium solubility (Cur con.)
Procedure: Excess crystalline Cur was suspended in each solution, vortexed (1 min), sonicated (10 min), and incubated (37 °C, 24 h). After incubation, suspensions were filtered (0.22 μm), and Cur concentration in the filtrate was quantified using HPLC/UV-Vis (HPLC/UV-Vis Method section). All experiments were performed in quadruplicate (n = 4).
Cur content in in vitro dissolution samples was quantified using a Waters 2695 Alliance HPLC system (Waters Corporation, Milford, MA, USA) equipped with a Waters 2998 photodiode array (PDA) detector. Separation was performed on an XBridge® C18 column (4.6 × 250 mm, 5.0 μm; Waters) maintained at 25 °C. The mobile phase, composed of water and methanol (80:20, v/v), was delivered isocratically at a flow rate of 1.0 mL/min. The injection volume was 10 μL, and detection was performed at 430 nm, and Cur eluted at approximately 4.80 min. […] All data were acquired in triplicate (n = 3) and processed using Empower®3 Software (Waters).

[3] = in vivo pharmacokinetic study in rats; set-up: species or system Sprague-Dawley (SD) rats; settings: rat; for plasma concentration of Cur, individual animals: Rat1-Rat5, listed as Intravenous Cur
Procedure: Male Sprague-Dawley (SD) rats (200 ± 20 g) were supplied by SPF Biotechnology Co., Ltd. (Beijing, China) and housed under standard laboratory conditions throughout the study. All animals were housed in a controlled environment (22 ± 2 °C, 55 ± 10% humidity) under a 12/12 h light/dark cycle, with free access to a standard laboratory rodent diet and water. A 12 h fasting period was implemented prior to the experiment, with water permitted ad libitum. All animal procedures were performed in strict accordance with protocols approved by the Biological and Medical Ethics Committee of Minzu University of China.
After fasting for 12 h (with free access to water), SD rats (n = 25) were randomly divided into five groups (n = 5 per group). Group 1: crystalline Cur (i.v., dissolved in saline with 5% DMSO). Group 2: crystalline Cur (p.o., suspended in 0.5% CMC-Na). Group 3: Cur/P188 ASD (1:8, w/w; p.o.). Group 4: Cur/P188/TW80 ASD (1:8:1, w/w/w; p.o.). Group 5: Cur/P188/SLS ASD (1:8:1, w/w/w; p.o.). Group 1 received the formulation via tail vein injection, while Groups 2–5 were suspended in water (pH 7.0) and administered orally by gavage at a Cur-equivalent dose of 40 mg/kg. Blood samples (0.2 mL) were collected from each rat at 4, 7, 10, 20, and 30 min, and 1, 2, 4, and 24 h post-dosing. Plasma was separated by centrifugation (5000 rpm, 5 min, 4 °C) and stored at −80 °C until analysis.
Cur was extracted from 50 μL of plasma using 600 μL of ethyl acetate and quantified by LC-MS/MS, with diclofenac sodium (20 μL, 200 ng/mL) serving as the internal standard. Blank plasma was obtained from a separate control group (n = 5) that received water only. Analysis of these blank samples confirmed the absence of significant matrix interference, thereby validating the analytical method.
(§1) Cur quantification in cellular and rat plasma samples was carried out using a SCIEX QTRAP® 5500 LC-MS/MS system coupled with a SCIEX ExionLC^TM AC system (AB SCIEX, Framingham, MA, USA).
Separation was achieved on an Acquity UPLC® BEH C18 column (100 × 2.1 mm, 1.7 μm; Waters) maintained at 40 °C. The mobile phase consisted of (A) 0.1% formic acid in water and (B) acetonitrile (ACN), delivered at a flow rate of 0.14 mL/min with the following gradient program: 10% B (0–1.0 min), increased to 95% B (1.0–9.0 min), and returned to 10% B (9.0–12.0 min). The injection volume was 5 μL. The retention times were approximately 4.85 min for Cur and 6.70 min for diclofenac sodium, used as the internal standard (IS).
Mass spectrometric detection was performed using an IonDrive^TM Turbo V ion (SCIEX, Framingham, MA, USA) source operating in negative electrospray ionization (ESI) mode. Quantification was conducted via multiple reaction monitoring (MRM) at m/z 367.1→133.9 for Cur, and m/z 294.1→250.0 for diclofenac sodium (IS). The assay was linear over the concentration range of 2-500 ng/mL (R^2 > 0.999). All data were acquired in triplicate (n = 3) and processed using MultiQuant software version 3.0.2 (AB SCIEX).
Pharmacokinetic parameters were calculated using non-compartmental analysis with DAS 2.0 software (Boying Corporation, Beijing, China). Data analysis was performed using GraphPad Prism 10.1.2 software. The result is expressed as mean ± standard deviation (SD). For pairwise comparisons between groups, t-tests were conducted. For multiple group comparisons, one-way analysis of variance (ANOVA) was performed, followed by Tukey’s post hoc test for multiple comparisons. Prior to ANOVA, the assumptions of normality and homogeneity of variances were verified using the Shapiro–Wilk test and Bartlett’s test, respectively. p < 0.05 indicates statistically significant differences.

[4] = in vitro non-sink dissolution; format: physicochemical; settings: Cur-equivalent 1 mg/mL, water pH 7.0, 37 °C
Procedure: (§2) The dissolution behavior of Cur formulations was evaluated under non-sink conditions. Tested formulations included pure amorphous Cur, binary Cur/P188 ASD (1:8, w/w), and ternary Cur/P188/TW80 and Cur/P188/SLS ASDs (1:8:1, w/w/w). Each sample was introduced into 6 mL of water (pH 7.0) to achieve a Cur-equivalent concentration of 1 mg/mL at 37 °C. Aliquots (0.4 mL) were collected at 10, 20, and 45 min, as well as at 1h and 2 h, and immediately centrifuged (10,000 rpm, 3 min, 25 °C) to separate the supernatant from the precipitate. (1) The supernatant was diluted 1:2 (v/v) with methanol and analyzed for Cur concentration via HPLC/UV-Vis; (2) The precipitate was vacuum-dried and analyzed for crystallinity using PXRD.
All dissolution experiments were conducted in triplicate (n = 3).
Cur content in in vitro dissolution samples was quantified using a Waters 2695 Alliance HPLC system (Waters Corporation, Milford, MA, USA) equipped with a Waters 2998 photodiode array (PDA) detector. Separation was performed on an XBridge® C18 column (4.6 × 250 mm, 5.0 μm; Waters) maintained at 25 °C. The mobile phase, composed of water and methanol (80:20, v/v), was delivered isocratically at a flow rate of 1.0 mL/min. The injection volume was 10 μL, and detection was performed at 430 nm, and Cur eluted at approximately 4.80 min. […]

[5] = system: MDCK cells; test: cellular uptake study (LC-MS/MS of intracellular Cur); format: cell-based, canine; settings: 10 min incubation, 5 μg Cur-equivalent (10 μg/mL)
Procedure: MDCK cells were seeded in 24-well plates and cultured following the procedures described in Cytotoxicity Assay section. The cells were treated with 500 µL of complete DMEM medium (pH 7.4) containing crystalline Cur, amorphous Cur, binary Cur/P188 ASD (1:8, w/w), or ternary Cur/P188/TW80 or Cur/P188/SLS ASDs (1:8:1, w/w/w), at Cur-equivalent dose of 5 µg per well. After 10 min of incubation, the treatment was terminated by immediate removal of the medium. The cells were then washed three times with ice-cold PBS, lysed with 200 µL of 0.1% SDS (assisted by sonication), and dissolved in methanol at a 1:2 (v/v) ratio. The total intracellular Cur content was quantified using LC-MS/MS. All experiments were performed in quadruplicate (n = 4).
as §1
Separation was achieved on an Acquity UPLC® BEH C18 column (100 × 2.1 mm, 1.7 μm; Waters) maintained at 40 °C. […]
Mass spectrometric detection was performed using an IonDrive^TM Turbo V ion (SCIEX, Framingham, MA, USA) source operating in negative electrospray ionization (ESI) mode. Quantification was conducted via multiple reaction monitoring (MRM) at m/z 367.1→133.9 for Cur, and m/z 294.1→250.0 for diclofenac sodium (IS). […]

[6] = PXRD crystallinity of precipitates collected during dissolution; format: physicochemical; settings: precipitates collected at 20 min and 1 h of non-sink dissolution
Procedure: PXRD was used to characterize the crystalline nature of both freshly prepared Cur ASDs and precipitates collected during their dissolution. Measurements were conducted on a Rigaku Smartlab diffractometer (Rigaku Corporation, Tokyo, Japan) configured in Bragg–Brentano geometry using Cu Kα1 radiation. Diffractograms were collected over a 2θ range of 0° to 60° with a step size of 0.01°.
as §2

[7] = system: MDCK cells; test: cytotoxicity assay (CCK-8 cell viability); format: cell-based, canine; settings: 4 h treatment
Procedure: Madin-Darby Canine Kidney (MDCK) cells were seeded in 96-well plates (1 × 10^5 cells/well) and cultured for 24 h at 37 °C in complete DMEM (10% FBS, 1% penicillin–streptomycin) under 5% CO2. Cells were treated for 4 h with 100 µL of complete DMEM media (pH 7.4) containing crystalline Cur, amorphous Cur, binary Cur/P188 ASD (1:8, w/w), or ternary Cur/P188/TW80 or Cur/P188/SLS ASDs (1:8:1, w/w/w), at Cur-equivalent concentrations of 0 (vehicle), 2, 10, 25, 50, 100, and 200 μg/mL. After treatment, cells were washed three times with PBS (pH 7.4). Cell viability was assessed using a CCK-8 assay: 100 µL of serum-free DMEM and 10 µL of CCK-8 reagent were added to each well, followed by incubation for 2 h. Absorbance was measured at 450 nm using a Multiskan GO microplate reader (Thermo Fisher Scientific, Vantaa, Finland).
Cell viability was calculated according to the following equation:Viability (%) = [(As − Aᵦ)/(Ac − Aᵦ)] × 100% where
• As is the absorbance of experimental wells (cells + treatment + CCK-8); • Ac is the absorbance of control wells (cells + medium + CCK-8, no drug); • Aᵦ is the absorbance of blank wells (medium + CCK-8, no cells, no drug).
All experiments were performed in quintuplicate (n = 5).

[8] = male, Sprague-Dawley, plasma, iv, 40 mg/kg Cur-equivalent

SMILES: COc1cc(/C=C/C(=O)CC(=O)/C=C/c2ccc(O)c(OC)c2)ccc1O [Curcumin]
- logP [1]: ≈ 3
- solubility thermodynamic at 24 h [2]: < 0.1 µg/mL

SMILES: COc1cc(/C=C/C(=O)CC(=O)/C=C/c2ccc(O)c(OC)c2)ccc1O [Solution Cur, Curcumin]
- Cmax [3, 8]: 334 ± 9.6 ng/mL
- Tmax [3, 8]: 6 min
- half-life [3, 8]: 1.8 ± 0.2 h
- MRT last ([3]; male, Sprague-Dawley, plasma, iv, i.v., 40 mg/kg Cur-equivalent, read-out: MRT(0–24)): 5.2 ± 0.2 h
- concentration at 0.07 h ([3]; male, Sprague-Dawley, plasma, iv, 40 mg/kg, i.v., 40 mg/kg, 0.07 h, Rat1-Rat5, read-out: plasma concentration of Cur, individual animals): 331 ng/mL
- concentration at 0.12 h ([3]; male, Sprague-Dawley, plasma, iv, 40 mg/kg, i.v., 40 mg/kg, 0.12 h, Rat1-Rat5, read-out: plasma concentration of Cur, individual animals): 261 ng/mL
- concentration at 0.17 h ([3]; male, Sprague-Dawley, plasma, iv, 40 mg/kg, i.v., 40 mg/kg, 0.17 h, Rat1-Rat5, read-out: plasma concentration of Cur, individual animals): 220 ng/mL
- concentration at 0.33 h ([3]; male, Sprague-Dawley, plasma, iv, 40 mg/kg, i.v., 40 mg/kg, 0.33 h, Rat1-Rat5, read-out: plasma concentration of Cur, individual animals): 181 ng/mL
- concentration at 0.5 h ([3]; male, Sprague-Dawley, plasma, iv, 40 mg/kg, i.v., 40 mg/kg, 0.5 h, Rat1-Rat5, read-out: plasma concentration of Cur, individual animals): 160 ng/mL
- concentration at 1 h ([3]; male, Sprague-Dawley, plasma, iv, 40 mg/kg, i.v., 40 mg/kg, 1 h, Rat1-Rat5, read-out: plasma concentration of Cur, individual animals): 85.2 ng/mL
- concentration at 2 h ([3]; male, Sprague-Dawley, plasma, iv, 40 mg/kg, i.v., 40 mg/kg, 2 h, Rat1-Rat5, read-out: plasma concentration of Cur, individual animals): 50.6 ng/mL
- concentration at 4 h ([3]; male, Sprague-Dawley, plasma, iv, 40 mg/kg, i.v., 40 mg/kg, 4 h, Rat1-Rat5, read-out: plasma concentration of Cur, individual animals): 25.9 ng/mL
- concentration at 24 h ([3]; male, Sprague-Dawley, plasma, iv, 40 mg/kg, i.v., 40 mg/kg, 24 h, Rat1-Rat5, read-out: plasma concentration of Cur, individual animals): 8.3 ng/mL
- plasma concentration of Cur, individual animals ([3]; i.v., 40 mg/kg, 0.07 h): 340.1 ng/mL and 337.1 ng/mL and 323.9 ng/mL and 342.5 ng/mL
- plasma concentration of Cur, individual animals ([3]; i.v., 40 mg/kg, 0.12 h): 255.2 ng/mL and 257.9 ng/mL and 258.8 ng/mL and 264.3 ng/mL
- plasma concentration of Cur, individual animals ([3]; i.v., 40 mg/kg, 0.17 h): 215.1 ng/mL and 212.7 ng/mL and 219.1 ng/mL and 237.5 ng/mL
- plasma concentration of Cur, individual animals ([3]; i.v., 40 mg/kg, 0.33 h): 192.4 ng/mL and 207.1 ng/mL and 170.5 ng/mL and 217.7 ng/mL
- plasma concentration of Cur, individual animals ([3]; i.v., 40 mg/kg, 0.5 h): 130.3 ng/mL and 126.5 ng/mL and 120.8 ng/mL and 194.6 ng/mL
- plasma concentration of Cur, individual animals ([3]; i.v., 40 mg/kg, 1 h): 96.5 ng/mL and 101.5 ng/mL and 102.2 ng/mL and 65.3 ng/mL
- plasma concentration of Cur, individual animals ([3]; i.v., 40 mg/kg, 2 h): 63.9 ng/mL and 65.1 ng/mL and 75.3 ng/mL and 40.5 ng/mL
- plasma concentration of Cur, individual animals ([3]; i.v., 40 mg/kg, 4 h): 35.9 ng/mL and 25.7 ng/mL and 32.9 ng/mL and 22.5 ng/mL
- plasma concentration of Cur, individual animals ([3]; i.v., 40 mg/kg, 24 h): 10.2 ng/mL and 9.5 ng/mL and 8.5 ng/mL and 8.7 ng/mL

SMILES: COc1cc(/C=C/C(=O)CC(=O)/C=C/c2ccc(O)c(OC)c2)ccc1O [amorphous Cur, Curcumin]
- dissolved Cur concentration reached over 2 h [4]: ~ 1 μg/mL
- cellular uptake (% of the administered dose) [5]: 1.4%
- crystallinity of precipitates during dissolution (PXRD) [6]: crystallized immediately upon hydration
- IC50 (cytotoxicity, Cur-equivalent) [7]: 54.7 µg/mL
